Reference: patent US20230149448A1, “METHODS FOR PREVENTING AND TREATING R[…] MODIFICATION OF VIRUS RECEPTOR BINDING DOMAINS USING […]” (priority 2021, published 2023)

Key:
SARS-CoV-2 [1] = type: cell-based
[2] = molecular target: receptor binding domain (RBD) of Spike S protein (Severe acute respiratory syndrome coronavirus 2, UniProt P0DTC2); test: Exposure of Spike protein, capture/detection by RBD-specific antibodies (96 well, HRP); parameters: species or system SARS-CoV-2; details: 150 ppm, 5 minutes exposure
human subjects = test: Safety of microaerosolized HOCl inhalation in human volunteers; type: in vivo; details: dense microaerosols for 2-5 minutes, 400 episodes
Description: The safety of exposure of human subjects to microaerosolized pure stable HOCl of the present disclosure via the respiratory route was evaluated.
Human volunteers were exposed to dense microaerosols of HOCl for periods of 2-5 minutes and submitted subjective reports of the outcomes of these experiences. Data on a total of 400 such episodes were collected under medical supervision.

SARS-CoV-2 [3] = type: cell-based; remark: listed apart in the source

CCO [45% ethanol, ethanol, reference compound]
average reductions in infectivity (positive control) (SARS-CoV-2 [1]): 99.98%

OBr [HOBr, hypobromous acid]
inhibition of chromophore formation (S protein remaining bound by RBD specific antibodies) [2]: complete inhibition

OCl [HOCl, hypochlorous acid]
serious adverse effects (human subjects): No serious adverse effects
minor complaints (nose irritation, slight impact on ease of deep breathing) (human subjects; disappeared upon cessation of exposure): approximately 3%
average reduction in titer (SARS-CoV-2 [3]): 99.96%
inhibition of chromophore formation (S protein remaining bound by RBD specific antibodies) [2]: complete inhibition
average reductions in infectivity (SARS-CoV-2 [1]): 99.92%
